Results from patent publication US20070009566A1, “Method and apparatus for treating bacterial infections in devices” (priority 2005, published 2007).
Converted amounts (≈) assume the structure as drawn. Where two headings read alike, the source gives them in different places. Each block holds one compound with its values, some of them ahead of it. Where no end group is shown, it is not given here.

Assays:
[1] = test system: S. aureus strain Smith diffuse; assay: Rat central venous catheter (CVC)-associated infection model, lock technique; settings: day seven; for Quantitative blood culture / Quantitative catheters/venous tissues culture: mean ± S.D.; for Antimicrobial activity in quantitative peripheral blood cultures (in words): at concentration of MBC for adherent cells, compared with untreated control
[2] = test system: S. aureus strain Smith diffuse (SD), planktonic organisms; assay: Susceptibility testing by classical method (microbroth dilution, MIC/MBC, planktonic organisms); assay type: cell-based; settings: 10 μg of RIP pre-treatment (in 10 μL MH broth/well), 30 minutes
Source text: (§1) Organisms: The inventors chose the S. aureus strain Smith diffuse (SD).
National Committee for Clinical Laboratory Standards, Fifth Edition, Approved Standard M7-A5, Wayne, Pa. (2001).

[3] = test system: S. aureus strain Smith diffuse (SD), adherent organisms
[4] = test system: S. aureus strain Smith diffuse (SD), adherent organisms; assay: microbe, parasite or virus in culture; settings: Staphylococcus aureus
[5] = test system: S. aureus strain Smith diffuse (SD) biofilm; assay: Adherent biofilm formation (crystal violet, OD 570 nm); assay type: cell-based; settings: with addition of RIP into each well; data not shown
Procedure: as §1
Adherent biofilm formation for susceptibility testing: To develop a biofilm, 50 μL of Triptic Soy broth (“TSB”) containing 10^6 CFU/mL of bacteria was added under aseptic conditions to each well of a tissue culture-treated polystyrene 96-well plate containing 150 μL of TSB-2% glucose. […] To evaluate the formation of adherent biofilm, the remaining attached bacteria were fixed with 0.2 mL of 99% methanol per well, and after 15 min, plates were emptied and left to dry. […] Stepanovic et al., J Microbiol Methods 40:175-179 (2000); and Christensen et al., J Clin Microbiol 22:996-1006 (1985). The plates were air dried. The dye bound to the adherent cells was solubilized with 0.2 mL of 33% (v/v) glacial acetic acid per well.

[6] = antibiotic lock 1,024 μg/ml, 1 hour dwell
[7] = 10 μg of RIP pre-treatment (in 10 μL MH broth/well), 30 minutes
[8] = read-out: MBC, adherent organisms, 10 μg of RIP pre-treatment (in 10 μL MH broth/well), 30 minutes
[9] = read-out: MBC, adherent organisms, without RIP pre-treatment
[10] = read-out: MIC, adherent organisms, 10 μg of RIP pre-treatment (in 10 μL MH broth/well), 30 minutes
[11] = read-out: MIC, adherent organisms, without RIP pre-treatment
[12] = antibiotic lock 8.00 μg/ml (MBC for adherent cells), 1 hour dwell

Compound: O=C(O)c1cn(C2CC2)c2cc(N3CCNCC3)c(F)cc2c1=O [Ciprofloxacin, ciprofloxacin]
Quantitative blood culture [1, 6]: 6.6 × 10^1 ± 1.4 × 10^1bc CFU/ml | Quantitative catheters/venous tissues culture [1, 6]: 7.4 × 10^5 ± 2.1 × 10^5bc CFU/ml | Antimicrobial activity in quantitative peripheral blood cultures (in words) [1]: weak antimicrobial activity

MIC, planktonic organisms [2]: 0.50 µg/mL (≈ 1.67 µM) | MIC, adherent organisms [3, 7]: 0.50 µg/mL (≈ 1.67 µM) | MIC, adherent organisms ([3]; without RIP pre-treatment): 1.00 µg/mL (≈ 3.34 µM) | MIC [4, 10]: 0.5 µg/mL (≈ 1.67 µM) | MIC [4, 11]: 1 µg/mL (≈ 3.34 µM)
Compound: C[C@@H](O)[C@H]1C(=O)N2C(C(=O)O)=C(SCCN=CN)C[C@H]12 [Imipenem, imipenem]
MBC, planktonic organisms [2]: 1.00 µg/mL (≈ 3.34 µM) | MBC [4, 8]: 2 µg/mL (≈ 6.68 µM) | MBC [4, 9]: 8 µg/mL (≈ 26.7 µM) | Quantitative blood culture [1, 12]: 5.8 × 10^3 ± 1.2 × 10^3 CFU/ml | Quantitative catheters/venous tissues culture [1, 12]: 6.9 × 10^6 ± 2.1 × 10^6 CFU/ml | Quantitative blood culture [1, 6]: 5.7 × 10^1 ± 1.2 × 10^1bc CFU/ml | Quantitative catheters/venous tissues culture [1, 6]: 6.0 × 10^5 ± 1.9 × 10^5bc CFU/ml

Compound: CN[C@H](CC(C)C)C(=O)N[C@H]1C(=O)N[C@@H](CC(N)=O)C(=O)N[C@H]2C(=O)N[C@H]3C(=O)N[C@H](C(=O)N[C@H](C(=O)O)c4cc(O)cc(O)c4-c4cc3ccc4O)[C@H](O)c3ccc(c(Cl)c3)Oc3cc2cc(c3O[C@@H]2O[C@H](CO)[C@@H](O)[C@H](O)[C@H]2O[C@H]2C[C@](C)(N)[C@H](O)[C@H](C)O2)Oc2ccc(cc2Cl)[C@H]1O [Vancomycin]
MBC, planktonic organisms [2]: 2.00 µg/mL (≈ 1.38 µM) | MIC, planktonic organisms [2]: 1.00 µg/mL (≈ 0.69 µM) | MIC, adherent organisms [3, 7]: 1.00 µg/mL (≈ 0.69 µM) | MIC, adherent organisms ([3]; without RIP pre-treatment): 2.00 µg/mL (≈ 1.38 µM) | MBC [4, 8]: 2 µg/mL (≈ 1.38 µM) | MBC [4, 9]: 16 µg/mL (≈ 11 µM) | MIC [4, 10]: 1 µg/mL (≈ 0.69 µM) | MIC [4, 11]: 2 µg/mL (≈ 1.38 µM) | Quantitative blood culture [1, 6]: 5.3 × 10^1 ± 1.1 × 10^1bc CFU/ml | Quantitative catheters/venous tissues culture [1, 6]: 5.4 × 10^5 ± 1.6 × 10^5bc CFU/ml | Antimicrobial activity in quantitative peripheral blood cultures (in words) [1]: weak antimicrobial activity

Compound: YSPWTNF-NH2 [RIP, YSPWTNF-NH2]
Quantitative blood culture ([1]; RIP-impregnated CVC alone): 3.4 × 10^1 ± 0.8 × 10^1b CFU/ml | Quantitative catheters/venous tissues culture ([1]; RIP-impregnated CVC alone): 1.4 × 10^3 ± 0.3 × 10^3b CFU/ml | Slime production (photometrical method) [5]: much lower
